Experimental data published in ChEMBL document CHEMBL1152973, “Structure-activity relationship of etomidate derivatives at the GABA(A) receptor: Comparison with binding to 11beta-hydroxylase” (Bioorg Med Chem Lett, 2009).
Active and inactive are the calls of the source. No cut-off for these calls is given here.

How the values were obtained:
[1] = Displacement of [3H]ethynylpropylbicycloorthobenzoate from GABAA receptor from rat cortical membrane by scintillation counting in presence of 1 uM GABA
[2] = Displacement of [3H]ethynylpropylbicycloorthobenzoate from GABA receptor from rat cortical membrane by scintillation counting in absence of GABA
Rattus norvegicus [3] = species: Rattus norvegicus; assay: Ratio of IC50 for rat cortical membrane GABA receptor in absence of GABA to IC50 for rat cortical membrane GABA receptor in presence of GABA
Rattus norvegicus [4] = species: Rattus norvegicus; assay: Displacement of [3H]ethynylpropylbicycloorthobenzoate from GABA receptor from rat cortical membrane at 100 uM by scintillation counting in presence of 1 uM GABA
Rattus norvegicus [5] = species: Rattus norvegicus; assay: Displacement of [3H]ethynylpropylbicycloorthobenzoate from GABA receptor from rat cortical membrane at 100 uM by scintillation counting in absence of GABA

Row | SMILES | IC50 [1] | IC50 [2] | Ratio IC50 (Rattus norvegicus [3]) | Activity (Rattus norvegicus [4]) | Activity (Rattus norvegicus [5])
1 | COC(=O)c1cncn1[C@@H]1CCc2ccccc21 | 122 µM | > 300 µM |  |  | 
2 | COC(=O)c1cncn1[C@H](C)c1ccc(C)cc1 | 15.5 µM | > 300 µM |  |  | 
3 | CC[C@H](c1ccccc1)n1cncc1C(=O)OC | 7.15 µM | 111 µM | 15.8 |  | 
4 | CCOC(=O)c1cncn1[C@H](C)c1ccc(I)cc1 | 33 µM | > 300 µM |  |  | 
5 | COC(=O)c1cncn1[C@H](C)c1cccnc1 |  |  |  | inactive | inactive
6 | C[C@H](c1ccccc1)n1cncc1C(N)=O |  |  |  | inactive | inactive
7 | CC(C)OC(=O)c1cncn1[C@H](C)c1ccccc1 | 1.47 µM | 20.7 µM | 14.6 |  | 
8 | COC(=O)c1cncn1[C@H](C)c1ccc(CO)cc1 | 169 µM | > 300 µM |  |  | 
9 | CC(=O)[C@H]1CC[C@H]2[C@@H]3CC[C@H]4C[C@H](O)CC[C@]4(C)[C@H]3C(=O)C[C@]12C [ALFAXALONE] | 0.9 µM | 86 µM | 102 |  | 
10 | C[C@H](c1ccccc1)n1cncc1C(=O)OCCF | 4.78 µM | 80 µM | 16.6 |  | 
11 | COC(=O)c1cncn1[C@H](C)c1ccc(I)cc1 [IODOMETOMIDATE I-123, R-] | 37 µM | > 300 µM |  |  | 
12 | C[C@H](c1ccccc1)n1cncc1C(=O)O |  |  |  | inactive | inactive
13 | COC(=O)c1cncn1[C@H](C)c1ccccc1 | 8.97 µM | 163 µM | 19.6 |  | 
14 | CC(C)(C(=O)c1cccnc1)c1cccnc1 |  |  |  | inactive | inactive
15 | CC(=O)c1cncn1[C@H](C)c1ccccc1 | 155 µM | > 300 µM |  |  | 
16 | COC(=O)c1cncn1Cc1ccccc1 | 157 µM | > 300 µM |  |  | 
17 | CCCOC(=O)c1cncn1[C@H](C)c1ccccc1 | 1.29 µM | 15.4 µM | 14.1 |  | 
18 | CC(C)(c1cccnc1)C(O)c1cccnc1 (stereo not given) |  |  |  | inactive | inactive
19 | COC(=O)c1cncn1[C@H](C)c1cccc(I)c1 | 53 µM | > 300 µM |  |  | 
20 | COC(=O)c1cncn1[C@@H](C)c1ccccc1 | 202 µM | > 300 µM |  |  | 
21 | CCOC(=O)c1cncn1[C@H](C)c1ccccc1 [ETOMIDATE] | 2.05 µM | 38 µM | 19.3 |  | 
22 | CC(=O)[C@H]1CC[C@H]2[C@@H]3CC[C@H]4C[C@H](O)CC[C@]4(C)[C@H]3CC[C@]12C [BREXANOLONE] | 0.14 µM | 6.2 µM | 50 |  | 
23 | COC(=O)c1cncn1[C@H](C)c1ccc(Br)cc1 | 7.62 µM | 109 µM | 15.6 |  | 
